Data as given in patent US7872036B2, “3-triazolylphenyl sulfide derivative and insecticide, miticide and nematicide containing it as an active ingredient” (Kumiai Chemical Industry Co., Ltd., priority 2004, dated 2011).

How the values were obtained:
two-spotted spider mites [1] = assay: Miticidal test on two-spotted spider mites (by dipping); type: in vivo, Tetranychus urticae; design: scale not given here; conditions: dipping of soybean seedlings, active ingredient 500 ppm, 25° C., 13 days
Experimental: (§1) Wettable powders were prepared in accordance with Formulation Example 2 and diluted with water to an active ingredient concentration of 500 ppm. Soybean seedlings which had been inoculated with imago two-spotted spider mites were dipped in the resulting solutions and dried in air. The treated seedlings were placed in a thermostatic chamber at 25° C. for 13 days, and the mite survivors were counted for calculation of the miticidal value by using Equation 2. The test was carried out by one series system.

[2] = tested on: southern root-knot nematodes; assay: Nemastatic test on southern root-knot nematodes; type: in vivo, Meloidogyne sp.; conditions: diluted solution 20 ppm mixed 1:1 with suspension of second stage larvae, 25° C., 5 days
two-spotted spider mites [3] = assay: Miticidal test on two-spotted spider mites (by soil drenching); type: in vivo, Tetranychus urticae; design: scale not given here; conditions: active ingredient 100 ppm, 5 ml per 100 g soil, 25° C., 13 days
Experimental: as §1, with “100” for “500”, “100 g of the soil in cups with soybean” for “Soybean”, “drenched with 5 ml of” for “dipped in”, “solutions.” for “solutions and dried in air.”, “[…]” for “thermostatic”, “2.” for “2. The test was carried out by one series system.”

brown planthoppers = assay: Insecticidal test on brown planthoppers; type: in vivo, Nilaparvata lugens; conditions: active ingredient 500 ppm, germinating rice immersed, 4th-instar larvae, 25° C., 6 days

Cc1cc(F)c(-n2nc(C(F)(F)F)nc2N(C)C(=O)C(F)(F)F)cc1[S+]([O-])CC(F)(F)F (racemic) [Compound 212]
Miticidal value (two-spotted spider mites [1]): 100
Nemastatic degree (%) [2]: 100%
Miticidal value (two-spotted spider mites [3]): 100
Insecticidal degree (%) (brown planthoppers): 100%

Cc1ccc(-n2nc(C(F)(F)F)nc2N)cc1[S+]([O-])CC(F)(F)F (centres unmarked) [Compound 125]
Miticidal value (two-spotted spider mites [1]): 100
Nemastatic degree (%) [2]: 91%
Miticidal value (two-spotted spider mites [3]): 99
Insecticidal degree (%) (brown planthoppers): 100%

CNc1nc(C(F)(F)F)nn1-c1ccc(C)c([S+]([O-])CC(F)(F)F)c1 (centres unmarked) [Compound 38]
Miticidal value (two-spotted spider mites [1]): 100
Nemastatic degree (%) [2]: 100%
Miticidal value (two-spotted spider mites [3]): 100
Insecticidal degree (%) (brown planthoppers): 100%

C#CCNc1nc(C(F)(F)F)nn1-c1cc([S+]([O-])CC(F)(F)F)c(C)cc1F (centres unmarked) [Compound 66]
Miticidal value (two-spotted spider mites [1]): 100
Nemastatic degree (%) [2]: 94%
Miticidal value (two-spotted spider mites [3]): 100
Insecticidal degree (%) (brown planthoppers): 100%

Cc1cc(F)c(-n2nc(C(F)(F)F)nc2NC(=O)C(F)(F)F)cc1[S+]([O-])CC(F)(F)F (centres unmarked) [Compound 6, [5-(5-trifluoroacetylamino-3-trifluoromethyl-1,2,4-triazolyl)-4-fluoro-2-methylphenyl]2,2,2-trifluoroethyl sulfoxide]
Miticidal value (two-spotted spider mites [1]): 100
Nemastatic degree (%) [2]: 100%
Miticidal value (two-spotted spider mites [3]): 100
Insecticidal degree (%) (brown planthoppers): 100%
